Laboratory results from US12171755B2, “PAPD5 inhibitors and methods of use thereof” (Children's Medical Center Corporation, priority 2017, dated 2024).

Target: T1, PAPD5 (Homo sapiens, UniProt Q8NDF8)
T1 construct: made in house
Experiment: High-throughput luminescence (KinaseGlo) RNA polyadenylation assay, ATP utilization by recombinant PAPD5
Type: biochemical
Settings: for Fold-change determined at compound concentration 33 μM / Fold-change determined at compound concentration 100 μM / Fold-change determined at compound concentration 10 μM: Table 4 (entries of Table 5), ratio of luminescence with inhibitor to DMSO; for Fold-change determined at compound concentration 33 μM: 33 μM compound; for Fold-change determined at compound concentration 100 μM: higher = higher inhibition; for Fold-change determined at compound concentration 10 μM: 10 μM compound
Description: Optimal conditions for an in vitro RNA polyadenylation assay using recombinant PAPD5, ATP and an oligonucleotide substrate were identified. The HTS assay involved ATP utilization by PAPD5, which reads out as a decreased luminescence signal produced by luciferase (KinaseGlo, Promega, Madison, WI).
100 nl of compound dissolved in DMSO was transferred to each well of the assay plate via pin transfer. For negative control wells, DMSO alone was added. Plates were gently vortexed for 5 seconds, then incubated for 2 hours at room temperature.
After 2 hours, 5 ul of luciferase (Promega KinaseGlo, Madison, WI) was added using a MultiDrop Combi (Thermo Fisher Scientific, Waltham, MA). The mixture was gently vortexed for 5 seconds and incubated for 10 minutes at room temperature. Plates were spun for 1 minute prior to luminescence measurements. Luminescent measurements were quantitated using a PerkinElmer EnVision™ plate reader.
˜100,000 compounds from various libraries at the ICCB-Longwood were screened in this manner in duplicate.
The fold change was the ratio of luminescence from a sample with inhibitor compared to that with DMSO. Thus, a higher number indicates higher inhibition.

T1 sequence (Q8NDF8 68-698 isoform Q8NDF8-5): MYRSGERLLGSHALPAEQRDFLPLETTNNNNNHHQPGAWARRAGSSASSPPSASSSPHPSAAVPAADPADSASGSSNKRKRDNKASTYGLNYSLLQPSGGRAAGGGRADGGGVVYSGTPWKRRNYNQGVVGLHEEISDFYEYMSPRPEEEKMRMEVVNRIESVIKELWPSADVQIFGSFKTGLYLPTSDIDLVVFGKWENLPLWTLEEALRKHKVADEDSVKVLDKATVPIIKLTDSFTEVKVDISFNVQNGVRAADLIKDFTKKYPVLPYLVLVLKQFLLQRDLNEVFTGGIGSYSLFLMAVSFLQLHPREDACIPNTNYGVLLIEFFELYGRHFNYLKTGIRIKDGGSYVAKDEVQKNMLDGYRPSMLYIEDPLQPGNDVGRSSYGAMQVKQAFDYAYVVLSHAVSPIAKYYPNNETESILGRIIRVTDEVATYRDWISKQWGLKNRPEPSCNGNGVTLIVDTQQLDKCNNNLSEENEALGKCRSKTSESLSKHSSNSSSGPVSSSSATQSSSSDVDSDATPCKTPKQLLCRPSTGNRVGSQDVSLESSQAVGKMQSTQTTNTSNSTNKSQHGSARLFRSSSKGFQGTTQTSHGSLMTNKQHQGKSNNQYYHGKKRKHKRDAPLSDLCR

| Fold-change determined at compound concentration 33 μM | Fold-change determined at compound concentration 100 μM (100 μM compound) | fold change at 100 μM concentration in the assay (100 μM compound) | Fold-change determined at compound concentration 10 μM | Compound |
| --- | --- | --- | --- | --- |
| 1.162 | 1.389 |  |  | 3-{7-Oxo-2.8.10- triazatricyclo[7.4.0.02,6]trideca- 1(13),3,5,9,11-pentaen-8-yl}propionic acid [Entry 68] |
| 1.079 | 1.328 |  |  | CC(C)C(CO)Nc1nc(Nc2ccc(C(=O)O)c(Cl)c2)c2ncn(C(C)C)c2n1 (stereo in doubt) [Entry 46, 2-chloro-4-[[2-[[(2R)-1-hydroxy-3-methylbutan-2-yl]amino]-9-propan-2-ylpurin-6-yl]amino]benzoic acid] |
|  |  | 3.9 |  | O=C(O)C1CC(=O)N(Cc2ccc3c(c2)OCO3)C1 (stereo not shown) [1-(1,3-benzodioxol-5-ylmethyl)-5-oxopyrrolidine-3-carboxylic acid] |
| 1.073 | 1.22 |  |  | Cc1csc(-c2cc(S(=O)(=O)Nc3cc(C)nc4ccccc34)c(C)s2)n1 [Entry 29, 2-methyl-N-(2-methylquinolin-4-yl)-5-(4-methyl-1,3-thiazol-2-yl)thiophene-3-sulfonamide] |
| 1.313 | 1.944 |  |  | Nc1c2ccccc2nc2ccccc12 [Entry 30, acridin-9-amine] |
| 1.304 | 1.895 |  |  | CCCCN(C)c1cc(C(=O)O)c2cc(NC(=O)c3ccccc3OC)ccc2n1 [Entry 31, 2-[butyl(methyl)amino]-6-[(2-methoxybenzoyl)amino]quinoline-4-carboxylic acid] |
| 1.114 | 1.236 |  |  | O=C(O)c1cccc(Nc2ncnc3ccc(Br)cc23)c1 [Entry 32, 3-[(6-bromoquinazolin-4-yl)amino]benzoic acid] |
| 1.175 | 1.505 |  |  | Nc1nc(N2CCCC2)nc2ccccc12 [Entry 33, 2-(1-pyrrolidinyl)-4-quinazolinamine] |
| 1.098 | 1.212 |  |  | OCCN(CCO)c1nc(N2CCCCC2)c2nc(N(CCO)CCO)nc(N3CCCCC3)c2n1 [Entry 34, 2,2′,2″,2″′-((4,8-Di(piperidin-1-yl)pyrimido[5,4-d]pyrimidine-2,6-diyl)bis(azanetriyl))tetraethanol] |
| 1.04 | 1.287 |  |  | O=C(O)C1CCCN(c2ncnc3c2oc2ccccc23)C1 (stereo not shown) [Entry 35, 1-[1]benzofuro[3,2-d]pyrimidin-4-ylpiperidine-3-carboxylic acid] |
| 1.096 | 1.239 |  |  | O=C(NCc1ccncc1)C1CCCN(c2ncnc3c2oc2ccccc23)C1 (stereo not shown) [Entry 36, 1-([1]benzofuro[3,2-d]pyrimidin-4-yl)-N-(pyridin-4-ylmethyl)piperidine-3-carboxamide] |
| 1.077 | 1.218 |  |  | O=C(NCc1ccccn1)C1CCCN(c2ncnc3c2oc2ccccc23)C1 (stereo not shown) [Entry 37, 1-([1]benzofuro[3,2-d]pyrimidin-4-yl)-N-(pyridin-2-ylmethyl)piperidine-3-carboxamide] |
| 1.207 | 1.631 |  |  | Cc1ccc(-n2c(N3CCCC(C(=O)O)C3)nc3ccsc3c2=O)cc1 (stereo not shown) [Entry 38, 1-[3-(4-methylphenyl)-4-oxo-3,4-dihydrothieno[3,2-d]pyrimidin-2-yl]piperidine-3-carboxylic acid] |
| 1.19 | 1.527 |  |  | O=C(O)C1CCCN(c2nc3c(-c4ccccc4)csc3c(=O)[nH]2)C1 (stereo not shown) [Entry 39, 1-(4-oxo-7-phenyl-3,4-dihydrothieno[3,2-d]pyrimidin-2-yl)piperidine-3-carboxylic acid] |
| 1.589 | 2.956 |  |  | COc1ccc(Nc2ncnc3sc(C(=O)O)c(C)c23)cc1OC [Entry 40, 4-(3,4-dimethoxyanilino)-5-methylthieno[2,3-d]pyrimidine-6-carboxylic acid] |
| 1.621 | 2.279 |  | 1.249 | c1cc(CNc2ncnc3sc4c(c23)CCCC4)ccn1 [Entry 41, N-(pyridin-4-ylmethyl)-5,6,7,8-tetrahydro[1]benzothieno[2,3-d]pyrimidin-4-amine] |
| 1.905 | 2.528 |  | 1.382 | COc1ccc(-c2nc(N3CCOCC3)c3sc(CN(C)c4ncc(C(=O)NO)cn4)cc3n2)cn1 [Entry 42, N-hydroxy-2-[[2-(6-methoxypyridin-3-yl)-4-morpholin-4-ylthieno[3,2-d]pyrimidin-6-yl]methyl-methylamino]pyrimidine-5-carboxamide] |
| 1.648 | 2.294 |  | 1.292 | NC(=O)C1CCN(c2ncnc3sc4c(c23)CCCC4)CC1 [Entry 43, 1-(5,6,7,8-tetrahydro[1]benzothieno[2,3-d]pyrimidin-4-yl)piperidine-4-carboxamide] |
| 1.273 | 1.651 |  |  | NC(=O)C1CCN(c2nc3c(S(=O)(=O)c4ccccc4)nnn3c3ccsc23)CC1 [Entry 44, 1-(3-(phenylsulfonyl)thieno[2,3-e][1,2,3]triazol[1,5-a]pyrimidin-5-yl)piperidine-4-carboxamide] |
| 1.429 | 1.936 |  |  | c1cc(CNc2nc(C3CC3)nc3c2CCC3)ccn1 [Entry 45, N-(2-cyclopropyl-6,7-dihydro-5H-cyclopenta[d]pyrimidin-4-yl)-N-(4-pyridylmethyl)amine] |
| 1.095 | 1.393 |  |  | CC(C)n1cnc2c(Nc3ccc(C(=O)O)cc3)nc(Cl)nc21 [Entry 47, 4-[(2-chloro-9-propan-2-ylpurin-6-yl)amino]benzoic acid] |
| 1.105 | 1.318 |  |  | O=S(=O)(Nc1ccc2nncn2n1)c1ccc(Br)cc1 [Entry 49, 4-bromo-N-([1,2,4]triazolo[4,3-b]pyridazin-6-yl)benzenesulfonamide] |
| 1.242 | 1.825 |  |  | O=S(=O)(Nc1ccc2nnc(-c3ccccc3)n2n1)c1ccc(Cl)cc1 [Entry 51, 4-chloro-N-(3-phenyl-[1,2,4]triazolo[4,3-b]pyridazin-6-yl)benzenesulfonamide] |
| 1.133 | 1.275 |  |  | Clc1ccc(Nc2nnc(Cc3ccncc3)c3ccccc23)cc1 [Entry 52, N-(4-chlorophenyl)-4-(pyridin-4-ylmethyl)phthalazin-1-amine] |
| 1.308 | 1.807 |  |  | CCOC(=O)C1CCN(c2nnc(Cc3ccncc3)c3ccccc23)CC1 [Entry 53, Ethyl 1-[4-(pyridin-4-ylmethyl)phthalazin-1-yl]piperidine-4-carboxylate] |
| 1.324 | 1.562 |  |  | Cc1ccc(-c2nnc(Nc3ccc(OCC(N)=O)cc3)c3ccccc23)cc1S(=O)(=O)N(C)C [Entry 54, 2-[4-({4-[3-(dimethylsulfamoyl)-4-methylphenyl]phthalazin-1-yl}amino)phenoxy]acetamide] |
| 1.262 | 1.592 |  |  | c1ccc(CC2CCN(c3nnc(Cc4ccncc4)c4ccccc34)CC2)cc1 [Entry 55, 1-(4-benzylpiperidin-1-yl)-4-(pyridin-4-ylmethyl)phthalazine] |
| 1.226 | 1.487 |  |  | Cc1ccc(-c2nnc(Nc3ccc(OCC(N)=O)cc3)c3ccccc23)cc1S(=O)(=O)NCC1CCCO1 (stereo not shown) [Entry 56, 2-[4-[[4-[4-methyl-3-(oxolan-2-ylmethylsulfamoyl)phenyl]phthalazin-1-yl]amino]phenoxy]acetamide] |
| 1.142 | 1.518 |  |  | Cc1ccc(CNC(=O)Nc2cn(CC(C)C)c(=O)c3ccccc23)cc1 [Entry 57, 1-[(4-methylphenyl)methyl]-3-[2-(2-methylpropyl)-1-oxoisoquinolin-4-yl]urea] |
| 1.099 | 1.574 |  |  | CC(C)Cn1cc(NC(=O)NCc2ccccc2)c2ccccc2c1=O [Entry 57a, 1-benzyl-3-[2-(2-methylpropyl)-1-oxoisoquinolin-4-yl]urea] |

| Compound | Fold-change determined at compound concentration 33 μM | Fold-change determined at compound concentration 100 μM (100 μM compound) | fold change at 100 μM concentration in the assay (100 μM compound) | Fold-change determined at compound concentration 10 μM |
| --- | --- | --- | --- | --- |
| CC(C)c1nnc2ccc(N3CCN(C)CC3)nn12 [Entry 50, 3-isopropyl-6-(4-methylpiperazino)[1,2,4]triazolo[4,3-b]pyridazine] | 1.336 | 2.083 |  |  |
